Reference: ChEMBL document CHEMBL3885881, “DrugMatrix”

Species: Rattus norvegicus
Test: DrugMatrix - Regimen: Daily Repeat
Type: toxicity, organism-based, Sprague-Dawley
Set-up: regimen Daily Repeat, gender Male, age 6-8 weeks
Conditions: in vivo; for ABSOLUTE BASOPHIL / ABSOLUTE EOSINOPHIL / ABSOLUTE LYMPHOCYTE / ABSOLUTE MONOCYTE / ABSOLUTE SEGMENTED NEUTROPHIL / BASOPHIL / EOSINOPHIL / ERYTHROCYTE COUNT / HEMATOCRIT / HEMOGLOBIN / LEUKOCYTE COUNT / LYMPHOCYTE / MEAN CORPUSCULAR HEMOGLOBIN / MEAN CORPUSCULAR HEMOGLOBIN CONCENTRATION / MEAN CORPUSCULAR VOLUME / MONOCYTE / NEUTROPHIL / NUCLEATED RED BLOOD CELLS / PLATELET COUNT: tissue Blood; for ALANINE AMINOTRANSFERASE / ALBUMIN / ALKALINE PHOSPHATASE / ASPARTATE AMINOTRANSFERASE / BLOOD UREA NITROGEN / CARBON DIOXIDE / CHLORIDE / CHOLESTEROL / CREATINE PHOSPHOKINASE / CREATININE / GLUCOSE / LACTATE DEHYDROGENASE / LIPASE / PHOSPHORUS / POTASSIUM / SODIUM / TOTAL BILIRUBIN / TOTAL PROTEIN / URIC ACID: tissue Plasma
[1] = iv, 34 mg/kg, 72 h, dose level High, time 3 day, vehicle 100 % SALINE
[2] = iv, 34 mg/kg, 120 h, dose level High, time 5 day, vehicle 100 % SALINE
[3] = po, 30 mg/kg, 72 h, route oral GAVAGE, dose level Low, time 3 day, vehicle .5 % CMC
[4] = po, 30 mg/kg, 120 h, route oral GAVAGE, dose level Low, time 5 day, vehicle .5 % CMC

SMILES: CN[C@@H]1[C@@H](O)[C@@H](O[C@@H]2[C@@H](O)[C@H](O[C@H]3OC(CN)=CC[C@H]3N)[C@@H](N)C[C@H]2N)OC[C@]1(C)O [SISOMICIN]
- ABSOLUTE BASOPHIL [1]: 0 CELLS/uL
- ABSOLUTE EOSINOPHIL [1]: 0 CELLS/uL
- ABSOLUTE LYMPHOCYTE [1]: 14608 CELLS/uL
- ABSOLUTE MONOCYTE [1]: 68 CELLS/uL
- ABSOLUTE SEGMENTED NEUTROPHIL [1]: 824 CELLS/uL
- BASOPHIL [1]: 0%
- EOSINOPHIL [1]: 0%
- ERYTHROCYTE COUNT [1]: 5.47 x10E6/uL
- HEMATOCRIT [1]: 35.6%
- HEMOGLOBIN [1]: 14.07 G/DL
- LEUKOCYTE COUNT [1]: 15.5 x10E3/uL
- LYMPHOCYTE [1]: 94.67%
- MEAN CORPUSCULAR HEMOGLOBIN [1]: 25.73 pg
- MEAN CORPUSCULAR HEMOGLOBIN CONCENTRATION [1]: 39.53 G/DL
- MEAN CORPUSCULAR VOLUME [1]: 65.13 fL
- MONOCYTE [1]: 0.33%
- NEUTROPHIL [1]: 5%
- NUCLEATED RED BLOOD CELLS [1]: 0 /100WBC
- PLATELET COUNT [1]: 1451.67 x10E3/uL
- ALANINE AMINOTRANSFERASE [1]: 52.33 u/L
- ALBUMIN [1]: 4.2 G/DL
- ALKALINE PHOSPHATASE [1]: 295 u/L
- ASPARTATE AMINOTRANSFERASE [1]: 81.67 u/L
- BLOOD UREA NITROGEN [1]: 17.67 mg/dL
- CARBON DIOXIDE [1]: 24 mmol/L
- CHLORIDE [1]: 102.33 MEQ/L
- CHOLESTEROL [1]: 66.33 mg/dL
- CREATINE PHOSPHOKINASE [1]: 204.33 u/L
- CREATININE [1]: 0.22 mg/dL
- GLUCOSE [1]: 150.67 mg/dL
- LACTATE DEHYDROGENASE [1]: 135.33 u/L
- LIPASE [1]: 10.33 u/L
- PHOSPHORUS [1]: 11.77 mg/dL
- POTASSIUM [1]: 6.49 MEQ/L
- SODIUM [1]: 144.2 MEQ/L
- TOTAL BILIRUBIN [1]: 0.17 mg/dL
- TOTAL PROTEIN [1]: 6 G/DL
- URIC ACID [1]: 1.27 mg/dL
- ABSOLUTE BASOPHIL [2]: 0 CELLS/uL
- ABSOLUTE EOSINOPHIL [2]: 136 CELLS/uL
- ABSOLUTE LYMPHOCYTE [2]: 16493.67 CELLS/uL
- ABSOLUTE MONOCYTE [2]: 81 CELLS/uL
- ABSOLUTE SEGMENTED NEUTROPHIL [2]: 1222.67 CELLS/uL
- BASOPHIL [2]: 0%
- EOSINOPHIL [2]: 1%
- ERYTHROCYTE COUNT [2]: 5.67 x10E6/uL
- HEMATOCRIT [2]: 37.07%
- HEMOGLOBIN [2]: 14.6 G/DL
- LEUKOCYTE COUNT [2]: 17.93 x10E3/uL
- LYMPHOCYTE [2]: 92%
- MEAN CORPUSCULAR HEMOGLOBIN [2]: 25.73 pg
- MEAN CORPUSCULAR HEMOGLOBIN CONCENTRATION [2]: 39.43 G/DL
- MEAN CORPUSCULAR VOLUME [2]: 65.3 fL
- MONOCYTE [2]: 0.33%
- NEUTROPHIL [2]: 6.67%
- NUCLEATED RED BLOOD CELLS [2]: 0 /100WBC
- PLATELET COUNT [2]: 1387.67 x10E3/uL
- ALANINE AMINOTRANSFERASE [2]: 44 u/L
- ALBUMIN [2]: 4.3 G/DL
- ALKALINE PHOSPHATASE [2]: 391.67 u/L
- ASPARTATE AMINOTRANSFERASE [2]: 71.67 u/L
- BLOOD UREA NITROGEN [2]: 15.67 mg/dL
- CARBON DIOXIDE [2]: 22.33 mmol/L
- CHLORIDE [2]: 103.67 MEQ/L
- CHOLESTEROL [2]: 57.33 mg/dL
- CREATINE PHOSPHOKINASE [2]: 158 u/L
- CREATININE [2]: 0.22 mg/dL
- GLUCOSE [2]: 155 mg/dL
- LACTATE DEHYDROGENASE [2]: 130.67 u/L
- LIPASE [2]: 10 u/L
- PHOSPHORUS [2]: 12.63 mg/dL
- POTASSIUM [2]: 6.57 MEQ/L
- SODIUM [2]: 145.93 MEQ/L
- TOTAL BILIRUBIN [2]: 0.27 mg/dL
- TOTAL PROTEIN [2]: 6.17 G/DL
- URIC ACID [2]: 1.63 mg/dL

SMILES: CC(=O)CCCCn1c(=O)c2c(ncn2C)n(C)c1=O [PENTOXIFYLLINE]
- ABSOLUTE BASOPHIL [3]: 0 CELLS/uL
- ABSOLUTE EOSINOPHIL [3]: 54.67 CELLS/uL
- ABSOLUTE LYMPHOCYTE [3]: 16028 CELLS/uL
- ABSOLUTE MONOCYTE [3]: 106.67 CELLS/uL
- ABSOLUTE SEGMENTED NEUTROPHIL [3]: 1677.33 CELLS/uL
- BASOPHIL [3]: 0%
- EOSINOPHIL [3]: 0.33%
- ERYTHROCYTE COUNT [3]: 4.93 x10E6/uL
- HEMATOCRIT [3]: 32.23%
- HEMOGLOBIN [3]: 12.6 G/DL
- LEUKOCYTE COUNT [3]: 17.87 x10E3/uL
- LYMPHOCYTE [3]: 89.67%
- MEAN CORPUSCULAR HEMOGLOBIN [3]: 25.6 pg
- MEAN CORPUSCULAR HEMOGLOBIN CONCENTRATION [3]: 39.1 G/DL
- MEAN CORPUSCULAR VOLUME [3]: 65.47 fL
- MONOCYTE [3]: 0.67%
- NEUTROPHIL [3]: 9.33%
- NUCLEATED RED BLOOD CELLS [3]: 0.33 /100WBC
- PLATELET COUNT [3]: 1350 x10E3/uL
- ALANINE AMINOTRANSFERASE [3]: 62.33 u/L
- ALBUMIN [3]: 4.27 G/DL
- ALKALINE PHOSPHATASE [3]: 546.33 u/L
- ASPARTATE AMINOTRANSFERASE [3]: 100.33 u/L
- BLOOD UREA NITROGEN [3]: 17.33 mg/dL
- CARBON DIOXIDE [3]: 24.67 mmol/L
- CHLORIDE [3]: 107.67 MEQ/L
- CHOLESTEROL [3]: 71 mg/dL
- CREATINE PHOSPHOKINASE [3]: 318.67 u/L
- CREATININE [3]: 0.21 mg/dL
- GLUCOSE [3]: 160.67 mg/dL
- LACTATE DEHYDROGENASE [3]: 438.67 u/L
- LIPASE [3]: 10 u/L
- PHOSPHORUS [3]: 13.7 mg/dL
- POTASSIUM [3]: 6.67 MEQ/L
- SODIUM [3]: 149.33 MEQ/L
- TOTAL BILIRUBIN [3]: 0.2 mg/dL
- TOTAL PROTEIN [3]: 5.87 G/DL
- URIC ACID [3]: 1.47 mg/dL
- ABSOLUTE BASOPHIL [4]: 0 CELLS/uL
- ABSOLUTE EOSINOPHIL [4]: 0 CELLS/uL
- ABSOLUTE LYMPHOCYTE [4]: 10793.33 CELLS/uL
- ABSOLUTE MONOCYTE [4]: 47.67 CELLS/uL
- ABSOLUTE SEGMENTED NEUTROPHIL [4]: 492.33 CELLS/uL
- BASOPHIL [4]: 0%
- EOSINOPHIL [4]: 0%
- ERYTHROCYTE COUNT [4]: 5.84 x10E6/uL
- HEMATOCRIT [4]: 36.73%
- HEMOGLOBIN [4]: 13.57 G/DL
- LEUKOCYTE COUNT [4]: 11.33 x10E3/uL
- LYMPHOCYTE [4]: 95.33%
- MEAN CORPUSCULAR HEMOGLOBIN [4]: 23.23 pg
- MEAN CORPUSCULAR HEMOGLOBIN CONCENTRATION [4]: 36.97 G/DL
- MEAN CORPUSCULAR VOLUME [4]: 62.93 fL
- MONOCYTE [4]: 0.33%
- NEUTROPHIL [4]: 4.33%
- NUCLEATED RED BLOOD CELLS [4]: 0.33 /100WBC
- PLATELET COUNT [4]: 1319.67 x10E3/uL
- ALANINE AMINOTRANSFERASE [4]: 45 u/L
- ALBUMIN [4]: 4.5 G/DL
- ALKALINE PHOSPHATASE [4]: 368 u/L
- ASPARTATE AMINOTRANSFERASE [4]: 79.67 u/L
- BLOOD UREA NITROGEN [4]: 18.33 mg/dL
- CARBON DIOXIDE [4]: 23 mmol/L
- CHLORIDE [4]: 105.33 MEQ/L
- CHOLESTEROL [4]: 65 mg/dL
- CREATINE PHOSPHOKINASE [4]: 458.33 u/L
- CREATININE [4]: 0.21 mg/dL
- GLUCOSE [4]: 166 mg/dL
- LACTATE DEHYDROGENASE [4]: 154.67 u/L
- LIPASE [4]: 10.33 u/L
- PHOSPHORUS [4]: 13.7 mg/dL
- POTASSIUM [4]: 7.08 MEQ/L
- SODIUM [4]: 148.67 MEQ/L
- TOTAL BILIRUBIN [4]: 0.2 mg/dL
- TOTAL PROTEIN [4]: 6.43 G/DL
- URIC ACID [4]: 2.37 mg/dL
